Reference: patent US20250154686A1, “COMPOUND LIBRARY” (CHUGAI SEIYAKU KABUSHIKI KAISHA, priority 2021, published 2025)

Biological target: T1, Bcl-2 protein (Recombinant Human Bcl-2 Protein) (Homo sapiens, UniProt P10415)
T1 construct: purchased Novus Biologicals NBP2-34889
Assay: AS-MS evaluation of binding of the Example 4 mixture library (1200 compounds/well) to Bcl-2, ASMS ratio (%)
Outline: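 ASMS ratio (%) derived from reverse-phase LC/MS of three samples: Bcl-2 (20 μM) incubation after SEC, protein-free standard without SEC, and protein-free blank after SEC. Compounds were pooled at 1200/well, 20 nM each, incubated 1 h, 23 °C, dark, in Tris-HCl pH 7.4 buffer with Tween-20 and DTT.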

[1] = AS-MS, Example 4 mixture library, Bcl-2, replicate n = 1
[2] = AS-MS, Example 4 mixture library, Bcl-2, replicate n = 2
[3] = replicate n = 1, mixture library, value belongs to the MS peak assigned to the compound
[4] = replicate n = 2, mixture library, value belongs to the MS peak assigned to the compound
[5] = AS-MS, mixture of 1200 compounds/well, Bcl-2 protein, replicate n = 1
[6] = AS-MS, mixture of 1200 compounds/well, Bcl-2 protein, replicate n = 2

T1 sequence (P10415 whole entry): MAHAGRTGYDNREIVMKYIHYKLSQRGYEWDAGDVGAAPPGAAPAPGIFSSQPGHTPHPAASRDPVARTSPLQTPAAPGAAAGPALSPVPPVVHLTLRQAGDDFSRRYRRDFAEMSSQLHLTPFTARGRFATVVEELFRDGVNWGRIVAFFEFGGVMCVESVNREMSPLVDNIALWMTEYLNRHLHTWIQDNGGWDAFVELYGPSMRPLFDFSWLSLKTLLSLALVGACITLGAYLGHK

Row | ASMS ratio (%) n = 1 [1] | ASMS ratio (%) n = 2 [2] | ASMS ratio (%) n = 1 [3] | ASMS ratio (%) n = 2 [4] | SMILES | other results
1 | 0.0% | −7.4% | – | – | CCOc1cncc(-c2ccc(CN3CCN(c4ccc(C(=O)NS(=O)(=O)c5ccc(NCCSc6ccccc6)c(C(F)(F)F)c5)cc4)CC3)cc2F)c1 [Compound B2R052-01, 4-[4-[[4-(5-Ethoxypyridin-3-yl)-3-fluorophenyl]methyl]piperazin-1-yl]-N-[4-(2-phenylsulfanylethylamino)-3-(trifluoromethyl)phenyl]sulfonylbenzamide] | –
2 | 0.0% | 0.0% | – | – | CCOc1cncc(C#Cc2cc(C(=O)N3CCN(c4ccc(C(=O)NS(=O)(=O)CCC(F)(F)F)nn4)CC3)cc(C(F)(F)F)c2)c1 [Compound B2N020-01, 6-[4-[3-[2-(5-Ethoxypyridin-3-yl)ethynyl]-5-(trifluoromethyl)benzoyl]piperazin-1-yl]-N-(3,3,3-trifluoropropylsulfonyl)pyridazine-3-carboxamide] | –
3 | 0.0% | 0.0% | – | – | CCOc1cccc(-c2cc(CN3CCN(c4ccc(C(=O)NS(=O)(=O)CCC(F)(F)F)nn4)CC3)cc(OC(C)C)c2)c1 [Compound B2N083-01, 6-[4-[[3-(3-Ethoxyphenyl)-5-propan-2-yloxyphenyl]methyl]piperazin-1-yl]-N-(3,3,3-trifluoropropylsulfonyl)pyridazine-3-carboxamide] | –
4 | – | – | 0.0% | 0.0% | CCOc1cncc(-c2ccccc2CN2CCN(c3ccc(C(=O)NS(=O)(=O)C(C)(C)C)cc3)CC2)c1 [Compound B2L046-01] | –
5 | – | – | 0.0% | 0.0% | CCOc1cncc(-c2ccc(C(=O)N3CCN(c4ccc(C(=O)NS(=O)(=O)C(C)(C)C)cc4)CC3)cc2F)c1 [Compound B2L028-01, N-tert-Butylsulfonyl-4-[4-[4-(5-ethoxypyridin-3-yl)-3-fluorobenzoyl]piperazin-1-yl]benzamide] | –
6 | – | – | −0.6% | 1.5% | CCOc1cncc(-c2ccccc2CN2CCN(c3ccc(C(=O)NS(C)(=O)=O)cc3)CC2)c1 [Compound B2I046-01, 4-[4-[[2-(5-Ethoxypyridin-3-yl)phenyl]methyl]piperazin-1-yl]-N-methylsulfonylbenzamide] | –
7 | 9.7% | −4.8% | – | – | CCOc1cccc(-c2cc(C(=O)N3CCN(c4ccc(C(=O)NS(=O)(=O)c5ccc(NCCSc6ccccc6)c(C(F)(F)F)c5)cc4)CC3)cc(C(F)(F)F)c2)c1 [Compound B2R039-01, 4-[4-[3-(3-Ethoxyphenyl)-5-(trifluoromethyl)benzoyl]piperazin-1-yl]-N-[4-(2-phenylsulfanylethylamino)-3-(trifluoromethyl)phenyl]sulfonylbenzamide] | –
8 | – | – | 0.0% | – | CCOc1cncc(-c2ccc(CN3CCN(c4ccc(C(=O)NS(C)(=O)=O)nn4)CC3)c(OC)c2)c1 [Compound B2I080-01, 6-[4-[[4-(5-Ethoxypyridin-3-yl)-2-methoxyphenyl]methyl]piperazin-1-yl]-N-methylsulfonylpyridazine-3-carboxamide] | –
9 | – | – | 0.0% | 0.0% | CCOc1cncc(C#Cc2ccccc2CN2CCN(c3ccc(C(=O)NS(C)(=O)=O)nn3)CC2)c1 [Compound B2I096-01, 6-[4-[[2-[2-(5-Ethoxypyridin-3-yl)ethynyl]phenyl]methyl]piperazin-1-yl]-N-methylsulfonylpyridazine-3-carboxamide] | –
10 | – | – | 0.0% | – | CCOc1cccc(-c2ccc(C(=O)N3CCN(c4ccc(C(=O)NS(=O)(=O)C(C)(C)C)cc4)CC3)c3ccccc23)c1 [Compound B2L035-01, N-tert-Butylsulfonyl-4-[4-[4-(3-ethoxyphenyl)naphthalene-1-carbonyl]piperazin-1-yl]benzamide] | –
11 | – | 0.0% | – | – | CCOc1cncc(-c2cc(OC)c(CN3CCN(c4ccc(C(=O)NS(=O)(=O)C(C)(C)C)nn4)CC3)c(OC)c2)c1 [Compound B2L086-01] | –

Second part, the compound before the results:

Row | SMILES | ASMS ratio (%) n = 1 [1] | ASMS ratio (%) n = 2 [2] | ASMS ratio (%) n = 1 [3] | ASMS ratio (%) n = 2 [4] | other results
12 | CCOc1cccc(-c2cc(CN3CCN(c4ccc(C(=O)NS(=O)(=O)C(C)(C)C)cc4)CC3)cc(OCC)c2)c1 [Compound B2L055-01, N-tert-Butylsulfonyl-4-[4-[[3-ethoxy-5-(3-ethoxyphenyl)phenyl]methyl]piperazin-1-yl]benzamide] | – | – | 0.0% | 0.0% | –
13 | CCOc1cncc(C#Cc2ccccc2C(=O)N2CCN(c3ccc(C(=O)NS(=O)(=O)CCC(F)(F)F)nn3)CC2)c1 [Compound B2N008-01, 6-[4-[2-[2-(5-Ethoxypyridin-3-yl)ethynyl]benzoyl]piperazin-1-yl]-N-(3,3,3-trifluoropropylsulfonyl)pyridazine-3-carboxamide] | 0.0% | −0.4% | – | – | –
14 | CCOc1cccc(-c2ccc(CN3CCN(c4ccc(C(=O)NS(=O)(=O)C(C)(C)C)nn4)CC3)cc2F)c1 [Compound B2L077-01, N-tert-Butylsulfonyl-6-[4-[4-(3-ethoxyphenyl)-3-fluorophenyl]methyl]piperazin-1-yllpyridazine-3-carboxamide] | – | – | 0.0% | 0.0% | –
15 | CCOc1cccc(-c2ccc(CN3CCN(c4ccc(C(=O)NS(=O)(=O)C(C)(C)C)nn4)CC3)c(CC)c2)c1 [Compound B2L075-01] | – | – | 0.0% | 33.9% | –
16 | CCOc1cncc(-c2ccccc2CN2CCN(c3ccc(C(=O)NS(=O)(=O)CCC(F)(F)F)cc3)CC2)c1 [Compound B2N046-01, 4-[4-[[2-(5-Ethoxypyridin-3-yl)phenyl]methyl]piperazin-1-yl]-N-(3,3,3-trifluoropropylsulfonyl)benzamide] | 0.0% | −1.2% | – | – | –
17 | CCCNC(=O)c1ccc(N2CCN(C(=O)c3ccccc3C#Cc3cccc(OCC)c3)CC2)nn1 [Compound B1M007-01] | – | – | – | – | ASMS ratio (%) n = 1 [5]: 0.3%; ASMS ratio (%) n = 2 [6]: 0.3%
18 | CCOc1cccc(-c2ccc(CN3CCN(c4ccc(C(=O)NS(=O)(=O)CCC(F)(F)F)nn4)CC3)c3ccccc23)c1 [Compound B2N091-01, 6-[4-[[4-(3-Ethoxyphenyl)naphthalen-1-yl]methyl]piperazin-1-yl]-N-(3,3,3-trifluoropropylsulfonyl)pyridazine-3-carboxamide] | 0.0% | 0.0% | – | – | –
19 | CCOc1cncc(-c2ccc(CN3CCN(c4ccc(C(=O)NS(=O)(=O)c5ccc(NCCSc6ccccc6)c(C(F)(F)F)c5)cc4)CC3)c3ccccc23)c1 [Compound B2R066-01, 4-[4-[[4-(5-Ethoxypyridin-3-yl)naphthalen-1-yl]methyl]piperazin-1-yl]-N-[4-(2-phenylsulfanylethylamino)-3-(trifluoromethyl)phenyl]sulfonylbenzamide] | 19.8% | −10.7% | – | – | –
20 | CCOc1cncc(-c2cc(OC)c(CN3CCN(c4ccc(C(=O)NS(C)(=O)=O)nn4)CC3)c(OC)c2)c1 [Compound B2I086-01, 6-[4-[[4-(5-Ethoxypyridin-3-yl)-2,6-dimethoxyphenyl]methyl]piperazin-1-yl]-N-methylsulfonylpyridazine-3-carboxamide] | – | – | 0.0% | 0.0% | –
21 | CCOc1cccc(-c2cnn(-c3cc(C(=O)N4CCN(c5ccc(C(=O)NS(=O)(=O)c6ccc(NCCSc7ccccc7)c(C(F)(F)F)c6)nn5)CC4)cc(C(F)(F)F)c3)c2)c1 [Compound B2R021-01, 6-[4-[3-[4-(3-Ethoxyphenyl)pyrazol-1-yl]-5-(trifluoromethyl)benzoyl]piperazin-1-yl]-N-[4-(2-phenylsulfanylethylamino)-3-(trifluoromethyl)phenyl]sulfonylpyridazine-3-carboxamide] | 13.0% | 0.0% | – | – | –
22 | CCCNC(=O)c1ccc(N2CCN(C(=O)CCc3ccccc3-c3cccc(OCC)c3)CC2)nn1 [Compound B1M011-01] | – | – | – | – | ASMS ratio (%) n = 1 [5]: 18.6%; ASMS ratio (%) n = 2 [6]: 7.5%
23 | CCCNC(=O)c1ccc(N2CCN(C(=O)c3ccc(-c4cccc(OCC)c4)c(C)c3)CC2)nn1 [Compound B1M003-01] | – | – | – | – | ASMS ratio (%) n = 1 [5]: −1.9%; ASMS ratio (%) n = 2 [6]: 2.0%
24 | CCOc1cccc(C#Cc2ccccc2CN2CCN(c3ccc(C(=O)NS(C)(=O)=O)nn3)CC2)c1 [Compound B2I095-01, 6-[4-[[2-[2-(3-Ethoxyphenyl)ethynyl]phenyl]methyl]piperazin-1-yl]-N-methylsulfonylpyridazine-3-carboxamide] | – | – | 0.0% | 0.0% | –
25 | CCOc1cccc(-c2cc(OC)c(CN3CCN(c4ccc(C(=O)NS(=O)(=O)C(C)(C)C)nn4)CC3)c(OC)c2)c1 [Compound B2L085-01, N-tert-Butylsulfonyl-6-[4-[[4-(3-ethoxyphenyl)-2,6-dimethoxyphenyl]methyl]piperazin-1-yl]pyridazine-3-carboxamide] | 0.0% | 0.0% | – | – | –
26 | CCOc1cncc(-c2ccc(CN3CCN(c4ccc(C(=O)NS(=O)(=O)CCC(F)(F)F)nn4)CC3)cc2F)c1 [Compound B2N078-01, 6-[4-[[4-(5-Ethoxypyridin-3-yl)-3-fluorophenyl]methyl]piperazin-1-yl]-N-(3,3,3-trifluoropropylsulfonyl)pyridazine-3-carboxamide] | 0.0% | 0.0% | – | – | –
27 | CCOc1cncc(-c2cc(C(=O)N3CCN(c4ccc(C(=O)NS(=O)(=O)CCC(F)(F)F)nn4)CC3)cc(C(C)(C)C)c2)c1 [Compound B2N016-01, 6-[4-[3-tert-Butyl-5-(5-ethoxypyridin-3-yl)benzoyl]piperazin-1-yl]-N-(3,3,3-trifluoropropylsulfonyl)pyridazine-3-carboxamide] | 0.0% | 0.0% | – | – | –
